Reference: US5587392A, “Azolyl methyl phenyl derivatives having aromatase inhibitory activity” (Mochida Pharmaceutical Co., Ltd., priority 1994, dated 1996)
Values joined by “and” are separate entries in the source; they are usually repeats but may differ in a detail not shown here. Equal values may be shown once. Read-outs that look alike come from different tables or passages of the source.

Key:
[1] = test system: estrogen-dependent diseases; conditions: related art; cited from earlier work
plasma aldosterone = assay: Lowering effect on plasma aldosterone; format: in vivo, male SD rats
[2] = test system: plasma 17α-hydroxyprogesterone; assay: Elevating effect on plasma 17α-hydroxyprogesterone; format: in vivo, male SD rats
[3] = test system: biosynthesis of aldosterone; conditions: related art; cited from earlier work
[4] = related art; cited from earlier work
aromatase = conditions: related art; cited from earlier work
[5] = test system: cleavage enzymes of cholesterol side chains; conditions: related art; cited from earlier work
aromatase from rat ovary = biological target: T1, aromatase from rat ovary (Rattus norvegicus, UniProt P22443); assay: Inhibitory activity on aromatase from rat ovary; format: biochemical
T1 construct: Using as an enzyme sample the ovarian microsome fraction from a female rat; from tissue; host or cells: rat ovary, microsome fraction (female rat)
T1 sequence (P22443 1-508): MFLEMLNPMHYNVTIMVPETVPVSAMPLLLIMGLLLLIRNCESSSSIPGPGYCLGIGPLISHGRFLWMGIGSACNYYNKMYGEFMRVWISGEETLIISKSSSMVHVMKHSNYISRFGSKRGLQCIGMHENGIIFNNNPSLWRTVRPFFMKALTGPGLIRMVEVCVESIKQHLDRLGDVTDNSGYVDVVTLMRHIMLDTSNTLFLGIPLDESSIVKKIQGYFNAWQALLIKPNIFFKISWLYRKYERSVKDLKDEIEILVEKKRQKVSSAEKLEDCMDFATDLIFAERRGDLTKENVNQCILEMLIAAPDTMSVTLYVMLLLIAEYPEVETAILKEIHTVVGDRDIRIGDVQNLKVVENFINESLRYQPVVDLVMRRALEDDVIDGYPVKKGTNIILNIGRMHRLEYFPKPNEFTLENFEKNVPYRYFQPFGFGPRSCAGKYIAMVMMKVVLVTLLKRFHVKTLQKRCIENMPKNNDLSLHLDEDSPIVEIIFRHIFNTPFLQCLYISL

plasma estradiol = assay: Decreasing activity on blood estrogen (plasma estradiol, PMSG-treated rats); format: in vivo, female SD rats; conditions: Rattus norvegicus, po, 4 hours after dosing, read-out: Ratio in plasma estradiol decrease; for inhibition in vivo at 0.1 mg/kg: 0.1 mg/kg orally; for inhibition in vivo at 0.01 mg/kg: 0.01 mg/kg orally
Method: More specifically, pregnant mare serum gonadotropin (PMSG) was subcutaneously administered to female SD rats aged 3 weeks, at a dose of 200 IU/rat. […] Four hours after the dosing of the test compound, blood was sampled, and plasma estradiol was messuered by radioimmunoassay(RIA). The decreasing ratio (%) in plasma estradiol levels was calculated by comparing with control groups.

corticosterone = assay: Effect on plasma levels of corticosterone; format: in vivo, male SD rats; conditions: even at the highest doses (10 mg/kg; CGS 16949A 1 mg/kg)
progesterone = assay: Effect on plasma levels of progesterone; format: in vivo, male SD rats; conditions: even at the highest doses (10 mg/kg; CGS 16949A 1 mg/kg)
testosterone = assay: Effect on plasma levels of testosterone; format: in vivo, male SD rats; conditions: even at the highest doses (10 mg/kg; CGS 16949A 1 mg/kg)
[6] = test system: steroid hormone level in blood; assay: Effects on the synthesis of various steroid hormones, compared with the dose lowering blood estrogen; format: in vivo, rats; conditions: 10 mg/kg
[7] = rat ovarian microsomes, 30 nM [1β-3H] androstenedione, pH 7.4, 37° C., 15 minutes, read-out: IC50 value

CC/C(=C(\c1ccccc1)c1ccc(OCCN(C)C)cc1)c1ccccc1 [tamoxifen]
therapeutical efficacy [1]: clinically satisfactory effect cannot be brought about from such administration alone

N#Cc1ccc(C2CCCc3cncn32)cc1 (stereo not shown) [CGS 16949A, 5-(p-cyanophenyl)-5,6,7,8-tetrahydroimidazo[1,5-a]pyridine]
minimal effective dose (plasma aldosterone; Rattus norvegicus, po, read-out: dose decreasing plasma aldosterone level): ≥ 0.1 mg/kg | Decrease in plasma aldosterone (plasma aldosterone; rat, in vivo): 37% and 55% | change of plasma levels of aldosterone (plasma aldosterone; rat, in vivo): did change | minimal effective dose ([2]; Rattus norvegicus, po, read-out: dose elevating plasma 17α-hydroxyprogesterone level): ≥ 0.1 mg/kg | Elevation in plasma 17α-hydroxyprogesterone ([2]; rat, in vivo): 169% and 313% | change of plasma levels of 17α-hydroxyprogesterone ([2]; rat, in vivo): did change | inhibition of the biosynthesis of aldosterone [3]: inhibits the biosynthesis of aldosterone

C[C@]12C=CC(=O)C=C1CC[C@@H]1[C@@H]2CC[C@]2(C)OC(=O)CC[C@@H]12 [testolactone]
therapeutical efficacy [1]: never exerts sufficient therapeutical efficacy | absorption when administered orally [4]: poorly absorbed when administered orally

Clc1ccc(COC(Cn2ccnc2)c2ccc(Cl)cc2Cl)c(Cl)c1 (stereo not shown) [miconazole]
aromatase inhibitory action (aromatase): have aromatase inhibitory activities as well

Clc1ccccc1C(c1ccccc1)(c1ccccc1)n1ccnc1 [clotrimazole]
aromatase inhibitory action (aromatase): have aromatase inhibitory activities as well

CCC1(c2ccc(N)cc2)CCC(=O)NC1=O (stereo not shown) [AG, Aminoglutethimide]
decrease of glucocorticoids and mineral corticoids [5]: causes therefore the decrease of glucocorticoids and mineral corticoids | potency to inhibit cleavage enzymes of cholesterol side chains [5]: higher potency to inhibit cleavage enzymes of cholesterol side chains

Cn1nnc2ccc(Oc3ccc(Cl)cc3Cn3ccnc3)cc21 [Example 38, 6-[4-chloro-2-(1H-imidazol-1-ylmethyl)phenoxy]-1-methyl-1H-benzotriazole]
IC50 (aromatase from rat ovary; [7]): 0.4 nM | inhibition in vivo at 0.1 mg/kg (plasma estradiol): 44%

Cn1nnc2ccc(Oc3ccc(C#N)cc3Cn3cncn3)cc21 [Example 52, 4-[6-(1-methyl-1H-benzotriazoyloxy)]-3-(1H-1,2,4-triazol-1-ylmethyl)benzonitrile]
IC50 (aromatase from rat ovary; [7]): 0.4 nM | inhibition in vivo at 0.001 mg/kg (plasma estradiol; 0.001 mg/kg orally): 22% | inhibition in vivo at 0.01 mg/kg (plasma estradiol): 77% | inhibition in vivo at 0.1 mg/kg (plasma estradiol): 91% | effect on plasma levels of corticosterone (corticosterone): neither the compound of Example 41 nor the compound of Example 52 in accordance with the present invention had any effect | effect on plasma levels of progesterone (progesterone): neither the compound of Example 41 nor the compound of Example 52 in accordance with the present invention had any effect | effect on plasma levels of testosterone (testosterone): neither the compound of Example 41 nor the compound of Example 52 in accordance with the present invention had any effect | effect on any steroid hormone level in blood [6]: Neither the compound of Example 41 nor the compound of Example 52 in accordance with the present invention had any effect

CC(=O)N1CCN(c2ccc(OCC3COC(Cn4ccnc4)(c4ccc(Cl)cc4Cl)O3)cc2)CC1 (stereo not shown) [ketoconazole]
aromatase inhibitory action (aromatase): have aromatase inhibitory activities as well

Cn1nnc2ccc(Oc3ccc(Cl)cc3Cn3cncn3)cc21 [Example 41, 6-[4-chloro-2-(1H-1,2,4-triazol-1-ylmethyl)phenoxy]-1-methyl-1H-benzotriazole]
IC50 (aromatase from rat ovary; [7]): 0.5 nM | inhibition in vivo at 0.01 mg/kg (plasma estradiol): 46% | inhibition in vivo at 0.1 mg/kg (plasma estradiol): 70% | effect on plasma levels of corticosterone (corticosterone): neither the compound of Example 41 nor the compound of Example 52 in accordance with the present invention had any effect | effect on plasma levels of progesterone (progesterone): neither the compound of Example 41 nor the compound of Example 52 in accordance with the present invention had any effect | effect on plasma levels of testosterone (testosterone): neither the compound of Example 41 nor the compound of Example 52 in accordance with the present invention had any effect | effect on any steroid hormone level in blood [6]: Neither the compound of Example 41 nor the compound of Example 52 in accordance with the present invention had any effect

Cn1nnc2ccc(Oc3ccc(OC(F)(F)F)cc3Cn3cncn3)cc21 [Example 48, 1-Methyl-6-[4-(trifluoromethoxy)-2-(1H-1,2,4-triazol-1-ylmethyl)phenoxy]-1H-benzotriazole]
IC50 (aromatase from rat ovary): 0.9 nM | inhibition in vivo at 0.01 mg/kg (plasma estradiol): 30%

Cn1nnc2ccc(Oc3ccc(Br)cc3Cn3cncn3)cc21 [Example 43, 6-[4-bromo-2-(1H-1,2,4-triazol-1-ylmethyl)phenoxy]-1-methyl-1H-benzotriazole]
IC50 (aromatase from rat ovary; [7]): 0.3 nM | inhibition in vivo at 0.01 mg/kg (plasma estradiol): 41% | inhibition in vivo at 0.1 mg/kg (plasma estradiol): 69%

C[C@]12CCC(=O)C(O)=C1CC[C@@H]1[C@@H]2CC[C@]2(C)C(=O)CC[C@@H]12 [4-hydroxyandrostenedione]
absorption when administered orally [4]: poorly absorbed when administered orally

Cn1nnc2ccc(Cc3ccc(C#N)cc3Cn3cncn3)cc21 [Example 80, 4-[(1-methyl-1H-benzotriazole-6-yl)methyl]-3-(1H-1,2,4-triazol-1-ylmethyl)benzonitrile]
IC50 (aromatase from rat ovary; [7]): 1.9 nM | inhibition in vivo at 0.1 mg/kg (plasma estradiol): 49%
